Assay results as given in US20160038498A1, “METHODS FOR THE TREATMENT OF CANCER” (The Translational Genomics Research Institute, priority 2013, published 2016).
One block for each molecule: values may come before it.

Tests used:
[1] = system: H295R cells; test: In vitro drug dose-response, cell viability by CellTiter Glo; assay type: cell-based
Description: (§1) H295R cells were plated at a density of 1750 cells/well in 40 μl of medium and SW-13 cells were plated at 1250 cells/wells in 40 μl DMEM with 2% FBS in white 384-well plates and allowed to attach for 24 hours. […] Cell viability was normalized to cells alone and DMSO controls. […].
(§2) Dose response curves and IC50 values for cell survival in the presence of the drugs were calculated using Prism software (GraphPad) using the log(inhibitor) vs. response—4 parameter function which fits the following equation: Y=Bottom+(Top-Bottom)/[1+10̂(X−Log IC50)] where X is the logarithm of concentration and Y is the percent cell survival. Y starts at the top and goes to bottom with a sigmoid shape as X increases. All experiments were done at least three technical replicates and values are represented as averages with standard error.

[2] = system: SW-13 cells; test: as above; assay type: cell-based
Description: as §1, §2

[3] = system: H295R cells; test: Caspase 3/7 Glo assay for apoptosis; assay type: cell-based; settings: for induction of apoptosis (caspase 3/7 activity), single compound: H295R (wild type p53), 8, 16, 24 and 48 hours
Description: (§3) ACC cell lines were plated and 24 hours later, 0.5 μM, 1 μM, 2.5 μM, and 5 μM of doxorubicin was added to the cultures. […] Data was normalized to cells alone, then to vehicle alone and expressed as a percentage of vehicle alone. […] H295R cells were plated at a density of 1750 cells/well in 40 μl of medium and SW-13 was plated at 1250 cells/wells in 40 μl DMEM with 2% FBS. […] Percent caspase 3/7 activity was normalized to cells and to DMSO control. […] […] Doxorubicin (Tocris, Minneapolis, Minn.) was used as a positive control for induction of apoptosis.

[4] = system: SW-13 cells; test: Caspase 3/7 Glo assay for apoptosis; assay type: cell-based; settings: for induction of apoptosis (caspase 3/7 activity), single compound: SW-13 (mutant p53), 8, 16, 24 and 48 hours
Description: as §3

[5] = system: TP53 (p53) transcript; test: RT-qPCR of p53 mRNA levels; assay type: cell-based; settings: either of the two cell lines (H295R, SW-13)
Description: (§4) 6×10^5 SW-13 and 7.5×10^5 H295R cells were plated in 10 cm^2 dishes in 10 ml of media. […] Total RNA was extracted 24 hours later using the mirVana miRNA Isolation Kit (Ambion, Inc, Grand Island, N.Y.) as per the manufacturer's protocol.
(§5) Total RNA was reverse transcribed utilizing both random hexamer and oligo-dT primers and the RT^2 First Strand cDNA Synthesis Kit (SABiosciences, Valencia, Calif.). The resulting cDNA was amplified on the iQ5 Real-Time PCR Detection System (Bio-Rad Laboratories, Inc, Hercules, Calif.) using primer sets for TP53 (p53), CDKN1A (p21) and ACTB (β-actin) and RT^2 SYBR Green Master Mix (all from SABiosciences, Valencia, Calif.) and run according to manufacturer's instructions. Melting curve analysis was performed to evaluate primer set specificity. Fold difference relative to […], which was used as the reference gene, was calculated using the Pfaffl method taking into account reaction efficiencies.

[6] = system: CDKN1A (p21) transcript; test: RT-qPCR of p21 mRNA levels; assay type: cell-based
Description: as §4, §5

[7] = system: MDM2 protein; test: Western blot of MDM2 protein after BI-2536; assay type: cell-based; settings: H295R and SW-13; BI-2536 24 hours
Description: 6×10^5 SW-13 and 7.5×10^5 H295R cells were plated in 10 cm^2 dishes in 10 ml of media. […] Cells were lysed with RIPA buffer with protease and phosphatase inhibitors, and the resulting protein lysate quantitated by BCA (Pierce, Thermo Scientific, Pittsburgh, Pa.). Thirty micrograms of protein were loaded onto 4-12% Bis-Tris pre-cast gels (Invitrogen, Carlsbad, Calif.) and allowed to separate at 150V for 1 hour. The gels were then transferred onto PVDF membranes for 7 minutes using the iBLOT western transfer system (Invitrogen, Carlsbad, Calif.) at room temperature. […] The membranes were developed using the SuperSignal West Femto Chemiluminescent Substrate (Pierce, Thermo Scientific, Pittsburgh, Pa.) and were visualized and quantitated with the Bio Spectrum 500 Imaging System (UVP, Cambridge, UK).
The blots were processed as described above for the detection of β-Actin (AbCam, Cambridge, Mass.) in 5% blocking solution which was used as an internal loading control. […] The actin membranes were also detected using the SuperSignal West Femto Chemiluminescent Substrate (Pierce, Thermo Scientific, Pittsburgh, Pa.) and were visualized and quantitated with the Bio Spectrum 500 Imaging System (UVP, Cambridge, UK) and relative amounts of PLK-1, MDM2 and p53 protein are reported relative to β-Actin. […]

[8] = system: BD140 lines; test: Caspase 3/7 Glo assay for apoptosis; assay type: cell-based
Description: ACC cell lines SW-13 and H295R were obtained from ATCC and authenticated by STR analysis on Aug. 24, 2012. BD140 lines (A-C) represent distinct subclones established from the tumor of ACC140. BD167 was also established. They are positive for DHEAS expression, confirming adrenocortical origin. SW-13 and the […] were grown in DMEM supplemented with 10% FBS, 1% L-glutamine, 1% […] (ITS), and penicillin-streptomycin. BD140-A, BD140-B and BD167 were grown in RPMI supplemented with 10% FBS, 1% L-glutamine, 1% ITS, and penicillin-streptomycin. H295R was grown in DMEM:F12 supplemented with 2.5% NuSerum, 1% L-glutamine, 1% ITS, and penicillin-streptomycin. All cells lines were grown at 37° C. in a 5% CO2 atmosphere.
ACC cell lines were plated and 24 hours later, 0.5 μM, 1 μM, 2.5 μM, and 5 μM of doxorubicin was added to the cultures. The activity of caspases 3 and 7 was assessed using Caspase 3/7 Glo (Promega, Madison, Wis.) at 8, 24, and 48 hours after drug addition according to manufacturer's instructions. Data was normalized to cells alone, then to vehicle alone and expressed as a percentage of vehicle alone.

[9] = system: adrenocortical carcinoma; settings: cited from earlier work

Compound: CC[C@@H]1C(=O)N(C)c2cnc(Nc3ccc(C(=O)NC4CCN(C)CC4)cc3OC)nc2N1C1CCCC1 [BI-2536]
- IC10 (cell viability) [1]: 0.00565 µM
- IC10 (cell viability) [2]: 0.0222 µM
- induction of apoptosis (caspase 3/7 activity), single compound [3]: robust induction of apoptosis
- time of maximum induction of apoptosis ([4]; SW-13): 48 h
- induction of apoptosis (caspase 3/7 activity), single compound [4]: robust induction of apoptosis
- levels of p53 transcript [5]: did not significantly affect
- transcription of CDKN1A (p21) ([6]; H295R, wild type p53): general trend of increased transcription
- amount of CDKN1A message ([6]; SW-13, mutant p53): reduced
- levels of the MDM2 protein [7]: does not affect

Compound: COc1cccc2c1C(=O)c1c(O)c3c(c(O)c1C2=O)C[C@@](O)(C(=O)CO)C[C@@H]3O[C@H]1C[C@H](N)[C@H](O)[C@H](C)O1 [doxorubicin]
- caspase 3/7 activation (apoptosis) following doxorubicin exposure ([3]; H295R, 0.5-5 μM, 8, 24, 48 hours): delayed
- time to significant induction of caspase 3/7 activation following doxorubicin exposure ([4]; SW-13, 0.5-5 μM): ≤ 8 h
- induction of caspase 3/7 activity ([8]; 0.5 μM and 1 μM): not seen until 48 hours
- induction of caspase 3/7 activity ([8]; 2.5 μM and 5 μM, by 24 hours): moderate induction

Compound: Clc1ccc(C(c2ccccc2Cl)C(Cl)Cl)cc1 (stereo not shown) [mitotane]
- survival of patients whose tumors respond ([9]; improved from 14 months): 50 months
- response rate ([9]; mitotane as a single agent): 23%
- tolerability ([9]; most patients, severe toxic side effects): poorly tolerated

- IC50 ([1]; CellTiter Glo, combination: BI-2536 kept constant at IC25, nutlin-3 serially diluted): 12.8 µM
- IC50 ([2]; CellTiter Glo, 96 hours, combination: BI-2536 kept constant at IC25, nutlin-3 serially diluted): 19.8 µM
Compound: COc1ccc(C2=N[C@@H](c3ccc(Cl)cc3)[C@@H](c3ccc(Cl)cc3)N2C(=O)N2CCNC(=O)C2)c(OC(C)C)c1 [nutlin-3]
- cell viability (in words) [1]: decreased
- cell viability (in words) [2]: decreased
- induction of apoptosis (caspase 3/7 activity), single compound [3]: restored the apoptotic response
- induction of apoptosis (caspase 3/7 activity), single compound [4]: small increase in apoptosis
